Laboratory results published in ChEMBL document CHEMBL4507319 (2021).

What was measured:
Conditions in all cases: Compound concentration 1000.0 nM
[1] = target: Tyrosine-protein kinase HCK (Homo sapiens) (UniProt P08631)
[2] = target: T1, Serine/threonine-protein kinase Chk1 (Homo sapiens) (UniProt O14757)
T1 sequence (whole entry): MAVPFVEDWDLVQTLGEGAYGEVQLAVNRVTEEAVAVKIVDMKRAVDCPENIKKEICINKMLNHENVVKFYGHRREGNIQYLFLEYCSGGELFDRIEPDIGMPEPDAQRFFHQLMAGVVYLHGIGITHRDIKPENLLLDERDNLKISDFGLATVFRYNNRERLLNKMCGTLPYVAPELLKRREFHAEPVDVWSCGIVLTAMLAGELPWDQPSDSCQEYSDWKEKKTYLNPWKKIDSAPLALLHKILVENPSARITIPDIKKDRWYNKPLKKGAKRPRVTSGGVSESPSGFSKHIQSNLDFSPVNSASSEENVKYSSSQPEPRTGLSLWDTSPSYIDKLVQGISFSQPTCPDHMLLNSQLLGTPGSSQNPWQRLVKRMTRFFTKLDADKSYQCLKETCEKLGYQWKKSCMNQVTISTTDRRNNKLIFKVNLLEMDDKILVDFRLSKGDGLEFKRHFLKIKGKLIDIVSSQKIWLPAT

[3] = target: Serine/threonine-protein kinase Nek10 (Homo sapiens) (UniProt Q6ZWH5)
[4] = target: Phosphatidylinositol 5-phosphate 4-kinase type-2 beta (Homo sapiens) (UniProt P78356)
[5] = target: T2, Bone morphogenetic protein receptor type-2 (Homo sapiens) (UniProt Q13873)
T2 sequence (whole entry): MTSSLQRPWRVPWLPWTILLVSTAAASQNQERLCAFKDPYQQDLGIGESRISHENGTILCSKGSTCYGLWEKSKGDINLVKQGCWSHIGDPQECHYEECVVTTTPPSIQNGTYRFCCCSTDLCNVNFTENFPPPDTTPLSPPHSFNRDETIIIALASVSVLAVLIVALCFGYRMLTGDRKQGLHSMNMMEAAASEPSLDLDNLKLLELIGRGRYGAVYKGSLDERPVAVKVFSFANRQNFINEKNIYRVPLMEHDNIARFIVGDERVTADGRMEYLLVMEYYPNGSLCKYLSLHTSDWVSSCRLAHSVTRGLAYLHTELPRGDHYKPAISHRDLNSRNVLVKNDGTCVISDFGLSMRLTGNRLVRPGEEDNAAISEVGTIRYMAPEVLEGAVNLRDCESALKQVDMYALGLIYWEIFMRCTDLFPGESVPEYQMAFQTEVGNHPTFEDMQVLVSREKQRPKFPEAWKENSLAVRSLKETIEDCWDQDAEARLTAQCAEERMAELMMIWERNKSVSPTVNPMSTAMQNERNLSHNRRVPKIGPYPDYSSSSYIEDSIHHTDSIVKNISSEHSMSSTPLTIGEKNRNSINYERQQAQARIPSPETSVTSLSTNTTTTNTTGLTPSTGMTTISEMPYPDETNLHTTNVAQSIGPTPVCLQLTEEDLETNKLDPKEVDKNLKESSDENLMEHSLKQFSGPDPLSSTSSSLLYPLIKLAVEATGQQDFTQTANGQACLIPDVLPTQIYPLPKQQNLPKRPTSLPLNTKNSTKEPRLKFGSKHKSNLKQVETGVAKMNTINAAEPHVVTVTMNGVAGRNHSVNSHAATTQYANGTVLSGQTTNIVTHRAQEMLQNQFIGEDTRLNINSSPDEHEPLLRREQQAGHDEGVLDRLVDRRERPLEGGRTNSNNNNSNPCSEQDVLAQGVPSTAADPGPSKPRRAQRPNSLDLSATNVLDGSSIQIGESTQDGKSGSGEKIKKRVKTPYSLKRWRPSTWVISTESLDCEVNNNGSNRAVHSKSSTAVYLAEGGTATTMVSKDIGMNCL

[6] = target: T3, TGF-beta receptor type-1 (Homo sapiens) (UniProt P36897)
T3 sequence (whole entry): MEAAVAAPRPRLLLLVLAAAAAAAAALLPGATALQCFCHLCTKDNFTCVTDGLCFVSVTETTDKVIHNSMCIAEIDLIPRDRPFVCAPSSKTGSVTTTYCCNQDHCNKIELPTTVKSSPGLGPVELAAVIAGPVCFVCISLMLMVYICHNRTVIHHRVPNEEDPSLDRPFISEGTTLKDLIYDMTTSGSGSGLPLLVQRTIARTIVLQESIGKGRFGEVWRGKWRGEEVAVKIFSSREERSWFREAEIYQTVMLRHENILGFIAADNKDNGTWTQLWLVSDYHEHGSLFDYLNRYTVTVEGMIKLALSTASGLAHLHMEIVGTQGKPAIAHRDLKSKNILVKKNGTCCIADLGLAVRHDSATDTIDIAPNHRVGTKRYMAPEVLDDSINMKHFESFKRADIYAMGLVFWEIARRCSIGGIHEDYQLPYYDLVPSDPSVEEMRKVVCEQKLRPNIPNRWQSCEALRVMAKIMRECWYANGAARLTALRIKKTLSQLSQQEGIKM

[7] = target: T4, MAP kinase-activated protein kinase 5 (Homo sapiens) (UniProt Q8IW41)
T4 sequence (whole entry): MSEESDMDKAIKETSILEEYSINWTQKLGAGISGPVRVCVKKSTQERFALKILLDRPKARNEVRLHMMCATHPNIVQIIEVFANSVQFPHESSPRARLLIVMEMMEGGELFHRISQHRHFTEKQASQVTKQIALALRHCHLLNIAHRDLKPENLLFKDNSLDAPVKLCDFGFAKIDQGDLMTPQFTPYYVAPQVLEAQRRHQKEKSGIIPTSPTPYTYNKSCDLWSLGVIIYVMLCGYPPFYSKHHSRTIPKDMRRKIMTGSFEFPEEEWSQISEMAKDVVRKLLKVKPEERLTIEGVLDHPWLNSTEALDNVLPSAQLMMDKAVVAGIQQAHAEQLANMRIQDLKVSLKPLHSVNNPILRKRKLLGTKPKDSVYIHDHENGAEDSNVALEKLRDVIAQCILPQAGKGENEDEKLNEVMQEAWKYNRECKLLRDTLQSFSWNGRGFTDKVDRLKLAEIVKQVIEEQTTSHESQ

[8] = target: Myosin light chain kinase 2, skeletal/cardiac muscle (Homo sapiens) (UniProt Q9H1R3)
[9] = target: Hormonally up-regulated neu tumor-associated kinase (Homo sapiens) (UniProt P57058)

Measured: residual activity

Sequence of Myosin light chain kinase 2, skeletal/cardiac muscle (Homo sapiens) (Q9H1R3 whole entry): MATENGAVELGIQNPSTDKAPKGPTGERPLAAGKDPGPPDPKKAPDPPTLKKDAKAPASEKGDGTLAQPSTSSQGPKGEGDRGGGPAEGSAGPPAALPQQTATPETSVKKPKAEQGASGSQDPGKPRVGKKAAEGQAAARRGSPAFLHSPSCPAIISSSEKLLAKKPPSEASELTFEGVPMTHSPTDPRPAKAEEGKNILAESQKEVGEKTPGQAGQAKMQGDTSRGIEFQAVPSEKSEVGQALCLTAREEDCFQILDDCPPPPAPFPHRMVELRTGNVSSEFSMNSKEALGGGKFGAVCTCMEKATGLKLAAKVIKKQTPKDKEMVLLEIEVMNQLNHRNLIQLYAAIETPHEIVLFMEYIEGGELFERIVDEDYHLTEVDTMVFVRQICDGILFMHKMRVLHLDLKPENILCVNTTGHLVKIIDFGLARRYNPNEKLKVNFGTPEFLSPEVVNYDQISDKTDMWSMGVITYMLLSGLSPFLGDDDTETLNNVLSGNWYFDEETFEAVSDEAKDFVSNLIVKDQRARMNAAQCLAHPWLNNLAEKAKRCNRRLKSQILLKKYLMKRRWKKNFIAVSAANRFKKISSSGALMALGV
Sequence of Tyrosine-protein kinase HCK (Homo sapiens) (P08631 2-526 limits assumed): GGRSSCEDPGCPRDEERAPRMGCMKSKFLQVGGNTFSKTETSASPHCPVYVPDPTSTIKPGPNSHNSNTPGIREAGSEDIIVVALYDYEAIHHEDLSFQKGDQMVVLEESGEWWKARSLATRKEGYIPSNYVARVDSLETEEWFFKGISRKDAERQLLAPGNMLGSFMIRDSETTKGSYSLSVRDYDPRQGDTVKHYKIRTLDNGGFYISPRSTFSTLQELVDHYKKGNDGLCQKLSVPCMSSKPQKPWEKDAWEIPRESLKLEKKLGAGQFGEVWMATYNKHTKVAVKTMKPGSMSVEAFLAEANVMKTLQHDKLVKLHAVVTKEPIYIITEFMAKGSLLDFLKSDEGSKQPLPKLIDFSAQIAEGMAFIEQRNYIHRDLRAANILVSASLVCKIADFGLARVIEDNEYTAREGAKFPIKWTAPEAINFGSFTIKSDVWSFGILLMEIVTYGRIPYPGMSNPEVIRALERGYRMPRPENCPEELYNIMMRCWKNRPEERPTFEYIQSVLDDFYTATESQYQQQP
Sequence of Phosphatidylinositol 5-phosphate 4-kinase type-2 beta (Homo sapiens) (P78356 whole entry): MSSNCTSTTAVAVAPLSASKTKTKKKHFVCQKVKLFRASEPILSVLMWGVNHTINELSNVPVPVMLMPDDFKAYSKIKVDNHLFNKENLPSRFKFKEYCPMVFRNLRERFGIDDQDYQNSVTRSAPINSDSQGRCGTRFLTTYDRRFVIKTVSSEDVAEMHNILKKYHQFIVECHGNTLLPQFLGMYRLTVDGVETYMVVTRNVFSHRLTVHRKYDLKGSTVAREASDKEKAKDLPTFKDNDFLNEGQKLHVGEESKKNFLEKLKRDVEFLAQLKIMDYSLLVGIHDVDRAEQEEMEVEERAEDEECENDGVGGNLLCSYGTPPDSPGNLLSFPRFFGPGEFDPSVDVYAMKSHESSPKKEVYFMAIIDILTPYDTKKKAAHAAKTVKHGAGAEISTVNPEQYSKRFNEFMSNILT
Sequence of Serine/threonine-protein kinase Nek10 (Homo sapiens) (Q6ZWH5 whole entry): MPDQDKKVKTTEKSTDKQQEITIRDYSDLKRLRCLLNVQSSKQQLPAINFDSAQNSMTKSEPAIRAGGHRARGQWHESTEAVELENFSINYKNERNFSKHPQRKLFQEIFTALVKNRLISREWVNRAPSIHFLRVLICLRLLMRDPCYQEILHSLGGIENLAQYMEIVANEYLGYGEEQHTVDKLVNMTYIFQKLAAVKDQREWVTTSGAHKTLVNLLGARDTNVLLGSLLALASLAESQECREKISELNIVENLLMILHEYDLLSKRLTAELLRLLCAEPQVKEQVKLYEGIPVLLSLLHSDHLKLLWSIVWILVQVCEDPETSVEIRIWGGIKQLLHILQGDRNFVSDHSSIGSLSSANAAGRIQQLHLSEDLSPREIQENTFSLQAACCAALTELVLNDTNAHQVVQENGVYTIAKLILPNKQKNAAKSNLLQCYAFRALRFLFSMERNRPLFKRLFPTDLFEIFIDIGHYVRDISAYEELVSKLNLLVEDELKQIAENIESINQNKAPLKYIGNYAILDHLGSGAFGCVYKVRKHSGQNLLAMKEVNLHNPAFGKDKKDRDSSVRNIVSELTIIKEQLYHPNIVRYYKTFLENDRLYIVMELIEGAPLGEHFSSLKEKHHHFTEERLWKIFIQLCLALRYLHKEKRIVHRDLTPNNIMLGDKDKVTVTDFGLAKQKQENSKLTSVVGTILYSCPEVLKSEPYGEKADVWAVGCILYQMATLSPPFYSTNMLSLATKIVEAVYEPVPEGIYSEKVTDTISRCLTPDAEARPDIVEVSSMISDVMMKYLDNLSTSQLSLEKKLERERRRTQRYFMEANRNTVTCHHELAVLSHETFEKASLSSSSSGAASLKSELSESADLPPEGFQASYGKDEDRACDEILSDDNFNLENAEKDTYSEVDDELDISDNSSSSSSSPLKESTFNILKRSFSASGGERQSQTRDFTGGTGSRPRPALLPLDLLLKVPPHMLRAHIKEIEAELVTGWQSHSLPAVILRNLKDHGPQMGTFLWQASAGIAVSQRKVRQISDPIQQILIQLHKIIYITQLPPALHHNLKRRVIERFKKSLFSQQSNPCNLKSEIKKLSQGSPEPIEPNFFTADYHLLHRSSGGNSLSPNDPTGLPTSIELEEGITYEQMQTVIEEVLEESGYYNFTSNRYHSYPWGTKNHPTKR
Sequence of Hormonally up-regulated neu tumor-associated kinase (Homo sapiens) (P57058 whole entry): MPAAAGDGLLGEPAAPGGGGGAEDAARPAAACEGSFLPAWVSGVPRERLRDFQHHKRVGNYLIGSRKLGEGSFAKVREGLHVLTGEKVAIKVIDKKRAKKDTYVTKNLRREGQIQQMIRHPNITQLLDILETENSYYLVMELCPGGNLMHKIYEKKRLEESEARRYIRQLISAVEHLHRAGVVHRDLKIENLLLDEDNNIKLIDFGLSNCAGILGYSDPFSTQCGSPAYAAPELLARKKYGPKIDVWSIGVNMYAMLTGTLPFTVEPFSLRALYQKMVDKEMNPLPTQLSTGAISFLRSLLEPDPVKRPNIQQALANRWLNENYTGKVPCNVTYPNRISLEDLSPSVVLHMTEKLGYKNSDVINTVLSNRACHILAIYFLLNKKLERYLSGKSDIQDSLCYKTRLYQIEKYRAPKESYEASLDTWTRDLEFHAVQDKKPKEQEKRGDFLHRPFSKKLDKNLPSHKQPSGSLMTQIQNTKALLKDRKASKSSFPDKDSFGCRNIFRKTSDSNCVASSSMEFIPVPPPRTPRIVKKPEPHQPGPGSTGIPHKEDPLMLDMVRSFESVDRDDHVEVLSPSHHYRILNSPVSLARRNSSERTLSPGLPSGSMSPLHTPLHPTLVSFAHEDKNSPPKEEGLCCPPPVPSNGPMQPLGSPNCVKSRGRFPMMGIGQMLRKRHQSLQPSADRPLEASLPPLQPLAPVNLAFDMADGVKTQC

CCc1ccccc1C(=O)Nc1n[nH]c2c(C)c(F)c(C3C(C#N)=C(C)N(C)C(C)=C3C#N)cc12 [BAY-3827]
inactive: [1] 100% | [2] 91% | [3] 100% | [4] 91% | [5] 100% | [6] 58% | [7] 100% | [8] 80% | [9] 100%

CC1=C(C#N)C(c2ccc3c(c2)c(NC(=O)c2ccccc2C)nn3C)C(C#N)=C(C)N1 [BAY-974]
inactive: [1] 66% | [2] 81% | [3] 90% | [4] 83% | [5] 79% | [6] 100% | [7] 100% | [8] 89% | [9] 78%
